Reference: ChEMBL document CHEMBL4145634, “Discovery of Janus Kinase 2 (JAK2) and Histone Deacetylase (HDAC) Dual Inhibitors as a Novel Strategy for the Combinational Treatment of Leukemia and Invasive Fungal Infections” (J Med Chem, 2018)
Converted amounts (≈) assume the structure as drawn. The source made the active and inactive calls. The rule behind the calls is not given here.

Key:
[1] = target: T1, Tyrosine-protein kinase JAK2 (Homo sapiens, UniProt O60674); assay: Inhibition of JAK2 (unknown origin) using FAM-labeled peptide as substrate preincubated for 10 mins followed by substrate addition and measured after 25 mins in presence of ATP
[2] = target: T2, Tyrosine-protein kinase JAK3 (Homo sapiens, UniProt P52333); assay: Inhibition of JAK3 (unknown origin) using FAM-labeled peptide as substrate preincubated for 10 mins followed by substrate addition and measured after 25 mins in presence of ATP
T2 sequence (P52333 whole entry): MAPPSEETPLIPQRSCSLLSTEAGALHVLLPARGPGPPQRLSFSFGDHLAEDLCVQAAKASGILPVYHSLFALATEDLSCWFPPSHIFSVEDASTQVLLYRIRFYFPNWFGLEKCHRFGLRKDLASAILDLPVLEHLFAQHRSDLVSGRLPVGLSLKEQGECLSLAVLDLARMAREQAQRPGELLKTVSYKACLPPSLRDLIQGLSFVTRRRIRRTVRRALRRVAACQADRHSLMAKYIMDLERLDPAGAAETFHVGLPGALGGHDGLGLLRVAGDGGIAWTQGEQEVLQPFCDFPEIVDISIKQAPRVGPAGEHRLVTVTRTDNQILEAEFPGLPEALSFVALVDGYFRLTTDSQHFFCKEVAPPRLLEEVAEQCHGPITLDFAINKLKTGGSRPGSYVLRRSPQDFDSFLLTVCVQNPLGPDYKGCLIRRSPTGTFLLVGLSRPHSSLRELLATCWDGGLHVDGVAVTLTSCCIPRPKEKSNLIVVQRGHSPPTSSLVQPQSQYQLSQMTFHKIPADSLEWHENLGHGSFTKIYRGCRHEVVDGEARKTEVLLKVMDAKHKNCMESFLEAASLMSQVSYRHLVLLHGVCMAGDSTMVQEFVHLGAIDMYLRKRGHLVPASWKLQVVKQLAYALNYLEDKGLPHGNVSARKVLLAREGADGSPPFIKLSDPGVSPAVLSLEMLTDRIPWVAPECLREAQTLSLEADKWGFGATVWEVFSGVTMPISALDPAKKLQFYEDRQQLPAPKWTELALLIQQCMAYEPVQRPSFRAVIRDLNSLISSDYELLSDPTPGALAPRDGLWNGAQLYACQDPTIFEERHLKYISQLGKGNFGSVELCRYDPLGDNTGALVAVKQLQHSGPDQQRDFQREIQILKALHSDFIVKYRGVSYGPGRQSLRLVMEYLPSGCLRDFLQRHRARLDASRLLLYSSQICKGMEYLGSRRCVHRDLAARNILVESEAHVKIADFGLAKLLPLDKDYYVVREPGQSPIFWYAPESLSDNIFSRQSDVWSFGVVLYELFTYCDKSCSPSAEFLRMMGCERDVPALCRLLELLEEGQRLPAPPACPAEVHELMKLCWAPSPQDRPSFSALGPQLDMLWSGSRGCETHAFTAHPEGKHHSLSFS

Mus musculus = assay: Protection against spleen enlargement in SCID mouse xenografted with human HEL cells at 10 mg/kg, ip qd; format: functional, organism-based
Candida albicans [3] = assay: Synergistic antifungal activity against FLC resistant Candida albicans 100 assessed as FIC index after 48 hrs by checkerboard microdilution method; format: functional
[4] = target: T3, Protein deacetylase HDAC6 (Homo sapiens, UniProt Q9UBN7); assay: Inhibition of full length human recombinant HDAC6 expressed in Baculovirus infected Sf9 cells using (Ac-Leu-Gly-Lys(Ac)-AMC as substrate preincubated for 5 mins followed by substrate addition and measured after 30 mins by fluorescence assay
T3 sequence (Q9UBN7 whole entry): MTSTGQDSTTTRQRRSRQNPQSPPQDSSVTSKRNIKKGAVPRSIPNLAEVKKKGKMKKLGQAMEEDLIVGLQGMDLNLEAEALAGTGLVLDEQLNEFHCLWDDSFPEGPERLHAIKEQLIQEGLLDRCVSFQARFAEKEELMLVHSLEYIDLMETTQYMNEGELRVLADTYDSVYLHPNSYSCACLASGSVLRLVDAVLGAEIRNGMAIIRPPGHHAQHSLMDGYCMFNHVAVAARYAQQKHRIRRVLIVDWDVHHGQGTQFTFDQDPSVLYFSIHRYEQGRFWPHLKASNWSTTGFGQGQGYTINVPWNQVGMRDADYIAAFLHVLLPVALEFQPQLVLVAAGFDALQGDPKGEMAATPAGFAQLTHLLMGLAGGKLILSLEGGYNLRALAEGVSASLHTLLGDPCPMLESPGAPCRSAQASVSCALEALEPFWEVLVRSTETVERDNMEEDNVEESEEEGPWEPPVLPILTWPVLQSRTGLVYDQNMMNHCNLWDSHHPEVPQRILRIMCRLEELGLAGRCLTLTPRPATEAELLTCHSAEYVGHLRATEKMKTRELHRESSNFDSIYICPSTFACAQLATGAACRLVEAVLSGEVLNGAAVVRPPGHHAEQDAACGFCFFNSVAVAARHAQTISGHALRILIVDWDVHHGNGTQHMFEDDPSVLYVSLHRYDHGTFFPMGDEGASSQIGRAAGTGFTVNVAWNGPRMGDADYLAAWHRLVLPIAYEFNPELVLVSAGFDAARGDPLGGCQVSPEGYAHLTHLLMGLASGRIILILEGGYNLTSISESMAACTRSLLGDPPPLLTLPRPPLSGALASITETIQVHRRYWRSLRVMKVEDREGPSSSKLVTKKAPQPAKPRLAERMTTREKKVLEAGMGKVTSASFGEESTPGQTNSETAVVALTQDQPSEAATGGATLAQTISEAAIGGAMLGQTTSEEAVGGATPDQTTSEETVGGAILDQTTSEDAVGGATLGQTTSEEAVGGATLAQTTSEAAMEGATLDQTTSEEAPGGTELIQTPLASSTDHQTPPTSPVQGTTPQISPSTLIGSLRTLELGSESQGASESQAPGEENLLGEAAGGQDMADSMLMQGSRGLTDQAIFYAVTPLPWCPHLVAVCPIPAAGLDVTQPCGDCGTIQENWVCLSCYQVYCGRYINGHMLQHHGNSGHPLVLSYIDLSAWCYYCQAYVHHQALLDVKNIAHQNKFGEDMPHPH

Candida albicans [5] = assay: microbe, parasite or virus in culture; format: functional; conditions: Candida albicans, 0304103, 48 h
Description: Antifungal activity against FLC resistant Candida albicans 0304103 assessed as fluconazol MIC50 after 48 hrs by checkerboard microdilution method

[6] = target: Histone deacetylase 3/NCoR1 (Homo sapiens, UniProt O15379); assay: Inhibition of human recombinant HDAC3/GST-tagged NCOR1 (397 to 503 residues) co-expressed in insect cells using (Ac-Leu-Gly-Lys(Ac)-AMC as substrate preincubated for 5 mins followed by substrate addition and measured after 30 mins by fluorescence assay
Candida albicans [7] = assay: Antifungal activity against FLC resistant Candida albicans 100 after 48 hrs in presence of fluconazol by checkerboard microdilution method; format: functional; conditions: Candida albicans, 100, 48 h
Candida albicans [8] = assay: microbe, parasite or virus in culture; format: functional; conditions: Candida albicans, 0710922, 48 h
Description: Antifungal activity against FLC resistant Candida albicans 0710922 after 48 hrs in presence of fluconazol by checkerboard microdilution method

[9] = target: T1, Tyrosine-protein kinase JAK2; assay: Inhibition of JAK2 in human HEL cells assessed as decrease in STAT5 phosphorylation after 24 hrs by Western blot analysis; format: cell-based

T1 sequence (O60674 whole entry): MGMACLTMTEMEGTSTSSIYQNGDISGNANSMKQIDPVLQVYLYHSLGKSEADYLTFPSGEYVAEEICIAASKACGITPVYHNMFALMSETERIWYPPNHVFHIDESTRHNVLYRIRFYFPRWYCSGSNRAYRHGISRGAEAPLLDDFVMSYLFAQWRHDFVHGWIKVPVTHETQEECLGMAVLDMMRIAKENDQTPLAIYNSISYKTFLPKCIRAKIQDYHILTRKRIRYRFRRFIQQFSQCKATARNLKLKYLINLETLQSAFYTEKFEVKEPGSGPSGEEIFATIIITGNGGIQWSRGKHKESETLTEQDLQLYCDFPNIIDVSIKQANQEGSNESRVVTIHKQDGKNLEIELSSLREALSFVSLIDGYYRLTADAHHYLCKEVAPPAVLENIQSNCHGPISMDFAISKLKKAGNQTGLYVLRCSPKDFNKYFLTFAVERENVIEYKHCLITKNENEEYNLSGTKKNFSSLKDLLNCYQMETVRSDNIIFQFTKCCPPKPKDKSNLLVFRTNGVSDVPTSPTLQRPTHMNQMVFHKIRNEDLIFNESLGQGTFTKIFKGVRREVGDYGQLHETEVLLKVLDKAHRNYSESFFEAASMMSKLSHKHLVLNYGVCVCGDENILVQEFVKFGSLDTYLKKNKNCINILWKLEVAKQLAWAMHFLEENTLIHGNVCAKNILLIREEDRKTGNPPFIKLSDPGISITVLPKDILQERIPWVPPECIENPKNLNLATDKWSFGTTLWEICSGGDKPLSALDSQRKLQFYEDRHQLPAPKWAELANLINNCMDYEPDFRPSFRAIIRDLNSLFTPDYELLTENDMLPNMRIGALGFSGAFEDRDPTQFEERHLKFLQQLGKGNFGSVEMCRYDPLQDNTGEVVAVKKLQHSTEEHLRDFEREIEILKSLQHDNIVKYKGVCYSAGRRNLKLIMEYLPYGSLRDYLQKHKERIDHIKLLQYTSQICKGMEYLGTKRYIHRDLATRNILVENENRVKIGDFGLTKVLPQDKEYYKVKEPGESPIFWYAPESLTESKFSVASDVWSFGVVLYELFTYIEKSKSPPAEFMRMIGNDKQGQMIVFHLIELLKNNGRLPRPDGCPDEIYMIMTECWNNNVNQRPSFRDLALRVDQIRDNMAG
Chain of Histone deacetylase 3/NCoR1 (O15379 whole entry, the tested form may be a part): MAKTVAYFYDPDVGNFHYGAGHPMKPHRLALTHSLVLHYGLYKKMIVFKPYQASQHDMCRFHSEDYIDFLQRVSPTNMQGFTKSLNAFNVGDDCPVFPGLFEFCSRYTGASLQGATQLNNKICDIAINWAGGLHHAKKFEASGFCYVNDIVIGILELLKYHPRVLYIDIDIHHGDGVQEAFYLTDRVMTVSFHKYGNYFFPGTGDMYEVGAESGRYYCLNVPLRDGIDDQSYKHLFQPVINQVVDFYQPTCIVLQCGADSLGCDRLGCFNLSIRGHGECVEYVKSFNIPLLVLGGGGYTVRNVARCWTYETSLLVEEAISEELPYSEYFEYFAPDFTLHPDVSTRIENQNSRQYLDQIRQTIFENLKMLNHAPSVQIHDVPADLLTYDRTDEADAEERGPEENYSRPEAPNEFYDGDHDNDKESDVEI
Chain of Histone deacetylase 3/NCoR1 (O75376 whole entry, further chain, the tested form may be a part): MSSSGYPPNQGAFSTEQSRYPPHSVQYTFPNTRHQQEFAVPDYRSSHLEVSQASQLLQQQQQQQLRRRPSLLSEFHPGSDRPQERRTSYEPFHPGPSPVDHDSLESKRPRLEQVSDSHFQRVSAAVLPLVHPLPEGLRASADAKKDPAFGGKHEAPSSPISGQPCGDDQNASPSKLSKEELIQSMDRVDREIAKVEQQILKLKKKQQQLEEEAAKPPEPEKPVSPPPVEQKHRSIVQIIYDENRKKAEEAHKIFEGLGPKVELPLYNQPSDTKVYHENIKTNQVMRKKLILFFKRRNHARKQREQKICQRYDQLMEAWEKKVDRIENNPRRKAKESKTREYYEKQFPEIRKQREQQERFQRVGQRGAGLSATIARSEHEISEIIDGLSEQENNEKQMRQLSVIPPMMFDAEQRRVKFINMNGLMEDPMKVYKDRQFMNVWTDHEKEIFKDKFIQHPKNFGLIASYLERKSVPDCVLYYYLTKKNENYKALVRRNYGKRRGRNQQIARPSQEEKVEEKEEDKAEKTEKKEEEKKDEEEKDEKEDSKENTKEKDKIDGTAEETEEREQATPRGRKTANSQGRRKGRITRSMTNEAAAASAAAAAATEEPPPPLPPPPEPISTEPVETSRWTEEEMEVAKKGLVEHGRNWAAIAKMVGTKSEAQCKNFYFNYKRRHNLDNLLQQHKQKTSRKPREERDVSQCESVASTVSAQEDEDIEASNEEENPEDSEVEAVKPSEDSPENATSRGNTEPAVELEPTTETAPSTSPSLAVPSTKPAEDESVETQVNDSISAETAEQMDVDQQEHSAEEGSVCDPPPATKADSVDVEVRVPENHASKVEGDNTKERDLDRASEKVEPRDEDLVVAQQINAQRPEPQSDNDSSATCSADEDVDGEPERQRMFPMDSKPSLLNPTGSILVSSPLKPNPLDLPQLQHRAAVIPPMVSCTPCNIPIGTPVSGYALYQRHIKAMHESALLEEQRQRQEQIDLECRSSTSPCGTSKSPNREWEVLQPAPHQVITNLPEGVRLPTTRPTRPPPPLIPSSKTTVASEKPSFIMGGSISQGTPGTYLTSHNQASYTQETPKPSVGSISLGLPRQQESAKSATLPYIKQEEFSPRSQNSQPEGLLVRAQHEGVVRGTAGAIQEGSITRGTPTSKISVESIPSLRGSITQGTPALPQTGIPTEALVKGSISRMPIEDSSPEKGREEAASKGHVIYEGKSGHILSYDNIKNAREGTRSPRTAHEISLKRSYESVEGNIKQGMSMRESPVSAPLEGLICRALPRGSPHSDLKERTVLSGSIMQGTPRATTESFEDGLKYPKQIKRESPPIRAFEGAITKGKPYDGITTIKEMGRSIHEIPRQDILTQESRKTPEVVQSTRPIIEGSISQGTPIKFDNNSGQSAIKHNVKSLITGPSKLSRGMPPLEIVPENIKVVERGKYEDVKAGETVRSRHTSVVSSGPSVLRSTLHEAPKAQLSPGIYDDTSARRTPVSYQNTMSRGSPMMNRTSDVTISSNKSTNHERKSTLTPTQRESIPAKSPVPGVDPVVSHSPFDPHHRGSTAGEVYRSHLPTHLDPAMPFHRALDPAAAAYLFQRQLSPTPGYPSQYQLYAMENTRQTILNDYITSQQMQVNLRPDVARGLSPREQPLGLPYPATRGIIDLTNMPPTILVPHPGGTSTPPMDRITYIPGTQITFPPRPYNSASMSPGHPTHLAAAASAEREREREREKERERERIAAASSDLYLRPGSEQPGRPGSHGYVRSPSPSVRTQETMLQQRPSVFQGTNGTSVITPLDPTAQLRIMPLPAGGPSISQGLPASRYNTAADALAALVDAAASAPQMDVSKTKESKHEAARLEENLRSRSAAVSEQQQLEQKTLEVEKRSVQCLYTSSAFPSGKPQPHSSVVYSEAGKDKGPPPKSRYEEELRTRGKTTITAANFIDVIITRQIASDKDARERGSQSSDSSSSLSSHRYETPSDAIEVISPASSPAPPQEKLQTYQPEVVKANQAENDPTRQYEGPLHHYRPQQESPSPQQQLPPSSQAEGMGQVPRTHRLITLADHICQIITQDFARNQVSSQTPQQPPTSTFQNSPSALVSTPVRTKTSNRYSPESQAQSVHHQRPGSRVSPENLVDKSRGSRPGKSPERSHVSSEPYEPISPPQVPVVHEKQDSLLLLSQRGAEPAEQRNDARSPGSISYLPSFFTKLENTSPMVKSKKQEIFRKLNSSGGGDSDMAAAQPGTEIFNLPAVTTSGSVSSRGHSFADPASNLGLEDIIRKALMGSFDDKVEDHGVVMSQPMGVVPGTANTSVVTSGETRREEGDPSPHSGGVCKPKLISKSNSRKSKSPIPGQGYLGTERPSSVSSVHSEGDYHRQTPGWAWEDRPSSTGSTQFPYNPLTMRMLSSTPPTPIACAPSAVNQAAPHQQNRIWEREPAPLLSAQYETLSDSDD

Compound: O=C(NO)c1ccc(-c2ccnc(Nc3ccc(N4CCOCC4)cc3)n2)cc1
- IC50 [1]: 85 nM
- IC50 [2]: 517 nM
- Activity (Mus musculus): Active
- fractional inhibitory concentration index (FICI) (Candida albicans [3]): 0.13
- IC50 [4]: 419 nM
- MIC50 (Candida albicans [5]): 0.5 µg/mL (≈ 1.28 µM)
- IC50 [6]: 45 nM
- MIC50 (Candida albicans [7]): 8 µg/mL
- MIC50 (Candida albicans [8]): 16 µg/mL (≈ 40.9 µM)
- inhibition [9]: Dose-dependent effect

Compound: CS(=O)(=O)Nc1ccc(-c2ccnc(Nc3ccc(N4CCC(C(=O)NCCCCCCCC(=O)NO)CC4)cc3)n2)cc1
- IC50 [1]: 2 nM
- IC50 [2]: 144 nM
- Activity (Mus musculus): Active
- fractional inhibitory concentration index (FICI) (Candida albicans [3]): 0.13
- IC50 [4]: 74 nM
- MIC50 (Candida albicans [5]): 0.25 µg/mL (≈ 0.401 µM)
- IC50 [6]: 17 nM
- MIC50 (Candida albicans [7]): 8 µg/mL
- MIC50 (Candida albicans [8]): 16 µg/mL (≈ 25.7 µM)
- inhibition [9]: Dose-dependent effect

Compound: CS(=O)(=O)Nc1ccc(-c2ccnc(Nc3ccc(N4CCC(C(=O)Nc5ccc(/C=C/C(=O)NO)cc5)CC4)cc3)n2)cc1
- IC50 [1]: 8 nM
- IC50 [2]: 121 nM
- Activity (Mus musculus): Active
- fractional inhibitory concentration index (FICI) (Candida albicans [3]): 0.07
- IC50 [4]: 46 nM
- MIC50 (Candida albicans [5]): 0.5 µg/mL (≈ 0.797 µM)
- IC50 [6]: 234 nM
- MIC50 (Candida albicans [7]): 4 µg/mL
- MIC50 (Candida albicans [8]): 8 µg/mL (≈ 12.7 µM)
- inhibition [9]: Dose-dependent effect
